Source: patent publication US11912723B2, “KRAS modulators and uses thereof” (Quanta Therapeutics, Inc., priority 2022, dated 2024)

Biological target: T1, wtNRAS/RAF1 (Homo sapiens, UniProt P01111)
T1 construct: (1-169); His6-SUMO (N, cleaved yes); made in house; host or cells: E. coli (printed for the KRAS and RAF1 constructs; not explicitly for NRAS)
Experiment: Protein-protein interaction (PPI) HTRF assay w.t.NRAS/RAF1
Format: binding
Procedure: Biotinylated KRAS wt and KRAS G12DNV proteins were expressed and purified in conditions similar to those previously reported (Tran, et al., 2021) (Zhang, et al., 2020). Briefly, KRAS (1-169) proteins were expressed in E. coli at 18° C. with an upstream TEV cleavage site (ENLFYQS) followed an Avi tag sequence ([…]). KIRAS expression constructs contained both a His6 and maltose-binding protein (MBP) tags at the N-terminus for Ni-NTA column purification prior to overnight TEV cleavage and MBP column purification. The avi-tagged NRAS expression construct contained both a His6 tag and SUMO cleavage sige at the N-terminus for Ni-NTA column purification followed by His-ULP1 digestion overnight. All avi-tagged RAS proteins were dialyzed into buffer containing ATP, biotin, and BirA followed by purification over a second Ni-NTA column and then run over a size exclusion HiLoad™ 26/600 Superdex™ column in 20 mM HEPES, pH 7.5, 300 mM NaCl, 5 mM MgCl2, and 1 mM TCEP. Fractions containing the protein of interest were pooled, concentrated, and confirmed by intact mass spectrometry. To prepare ‘GTP’ loaded KRAS and NRAS, biotinylated KRAS or NRAS was nucleotide exchanged from GDP-bound protein to GppNHp-bound (Jena Biosciences, NU-401-50) protein in the presence of alkaline phosphatase and excess GppNHp as previously described and the resulting nucleotide content was confirmed by HPLC reverse phase analytical chromatography (Donohue, et al., 2019) (Tran, et al., 2021).
His-tagged RAF1 (52-131) was similarly expressed in E. coli at 18° C. overnight with an upstream TEV cleavage site. His-tagged RAF1 expression construct contained both a His6 and MBP tags at the N-terminus for Ni-NTA column purification followed by MBP-tagged TEV digestion overnight. RAF1 protein samples were further purified over a MBP column followed by a Ni-NTA column and a second MBP column. The fractions containing the protein of interest were pooled, concentrated, and further purified over a HiLoad™ 16/600 Superdex™ 75 pg size exclusion column into 20 mM HEPES, pH8.0, 200 mM NaCl, 5 mM TCEP.
When RAS proteins are in the active GTP-bound conformation, they bind the effector protein RAF1 at the N-terminus Ras-binding domain (RBD, residues 52-131) (Tran, et al., 2021). Homogenous time resolved fluorescence (HTRF) was used to monitor the interaction between wt or mutant KRAS and RAF1 or wt NRAS and RAFT. Compounds were assayed in the presence of KRAS G12D/V and RAF1 versus wt KRAS to assess activity against mutant and w.t. KRAS. Similarly, compounds were then assayed in the presence of w.t. NRAS and RAF1 to assess RAS isoform selectivity. In all assay formats, His-tagged RAF1 protein was incubated with the HTRF donor, anti-6His Tb Cryptate gold (Cisbio 61DB10RDF), and biotinylated RAS proteins were incubated with the HTRF acceptor, streptavidin-d2 (CisBio 610SADLA). The intensity of the fluorescence signal emitted is proportional to binding between the two proteins. The donor solution was prepared by mixing 16 nM His-tagged RAF1 in protein dilution buffer with 1:100 anti-6His Tb cryptate in PPI-Terbium detection buffer. 16 nM biotinylated RAS protein was diluted into protein dilution buffer (50 mM Tris-HCl pH 7.5, 150 mM NaCl, 0.1 mM MgCl2, 1 mM TCEP, 0.005% Tween20) and mixed with 1:2000 Streptavidin-d2 diluted in PPI-Terbium detection buffer (CisBio 61DB10RDF). 50× compound in DMSO was mixed with 16 nM KRAS-acceptor solution and incubated for 30 minutes at room temperature. After compound pre-incubation with KRAS, the RAF1 donor solution was added to the KRAS-acceptor solution and incubated for 1 hour at room temperature. The fluorescence signal emitted was monitored at 665 nm and 615 nm using an Envision multimode plate reader. The HTRF ratio (665/615) was calculated and normalized to 0% inhibition in the absence of compound and 100% inhibition in the presence of untagged RAF1 protein. […]

T1 sequence (P01111 1-169): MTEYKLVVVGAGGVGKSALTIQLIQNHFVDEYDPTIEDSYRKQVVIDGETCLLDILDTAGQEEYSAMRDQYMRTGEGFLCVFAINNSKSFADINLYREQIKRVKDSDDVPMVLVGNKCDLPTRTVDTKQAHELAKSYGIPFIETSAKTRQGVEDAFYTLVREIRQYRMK

Compound | IC50
CN(C)C(=O)c1nn2c(c1Cl)CN(c1nc(OC[C@@]34CCCN3C[C@H](F)C4)nc3c1CN(C)[C@@]1(CCc4ccccc41)C3)CCC2 [Compound 53, 3-chloro-5-[(7S)-2-[[(2R,8S)-2-fluoro-1,2,3,5,6,7-hexahydropyrrolizin-8-yl]methoxy]-6-methyl-spiro[5,8-dihydropyrido[4,3-d]pyrimidine-7,1′-indane]-4-yl]-N,N-dimethyl-4,6,7,8-tetrahydropyrazolo[1,5-a][1,4]diazepine-2-carboxamide] | > 100 µM
CN(C)C(=O)c1nn2c(c1Cl)CN(c1nc(OC[C@@]34CCCN3C[C@H](F)C4)nc3c1CN(C)[C@@]1(CCCc4ccccc41)C3)CCC2 [Compound 64, 3-chloro-5-[(7S)-2-[[(2R,8S)-2-fluoro-1,2,3,5,6,7-hexahydropyrrolizin-8-yl]methoxy]-6-methyl-spiro[5,8-dihydropyrido[4,3-d]pyrimidine-7,1′-tetralin]-4-yl]-N,N-dimethyl-4,6,7,8-tetrahydropyrazolo[1,5-a][1,4]diazepine-2-carboxamide] | > 100 µM
C#Cc1c(C(=O)N(C)C)nn2c1CN(c1nc(OC[C@@]34CCCN3C[C@H](F)C4)nc3c1CN(C)[C@@]1(CCCc4ccccc41)C3)CCC2 [Compound 81, 3-ethynyl-5-[(7S)-2-[[(2R,8S)-2-fluoro-1,2,3,5,6,7-hexahydropyrrolizin-8-yl]methoxy]-6-methyl-spiro[5,8-dihydropyrido[4,3-d]pyrimidine-7,1′-tetralin]-4-yl]-N,N-dimethyl-4,6,7,8-tetrahydropyrazolo[1,5-a][1,4]diazepine-2-carboxamide] | > 100 µM
Cc1nnc(-c2nn3c(c2Cl)CN(c2nc(OC[C@@]45CCCN4C[C@H](F)C5)nc4c2CN(C)[C@@]2(CCCc5ccccc52)C4)CCC3)n1C [Compound 90, (7S)-4-[3-chloro-2-(4,5-dimethyl-1,2,4-triazol-3-yl)-4,6,7,8-tetrahydropyrazolo[1,5-a][1,4]diazepin-5-yl]-2-[[(2R,8S)-2-fluoro-1,2,3,5,6,7-hexahydropyrrolizin-8-yl]methoxy]-6-methyl-spiro[5,8-dihydropyrido[4,3-d]pyrimidine-7,1′-tetralin]] | > 100 µM
CN(C)C(=O)c1nn2c(c1Cl)CN(c1nc(OC[C@@]34CCCN3C[C@H](F)C4)nc3c1CN(C)[C@@]1(CCc4cccc(O)c41)C3)CCC2 [Compound 96, 3-chloro-5-[(7S)-2-[[(2R,8S)-2-fluoro-1,2,3,5,6,7-hexahydropyrrolizin-8-yl]methoxy]-7′-hydroxy-6-methyl-spiro[5,8-dihydropyrido[4,3-d]pyrimidine-7,1′-indane]-4-yl]-N,N-dimethyl-4,6,7,8-tetrahydropyrazolo[1,5-a][1,4]diazepine-2-carboxamide] | > 100 µM
